Laboratory results taken from the supplement of paper PMC11451515.

Test system: SEM cells
Test: cell viability relative to DMSO control; higher = less cytotoxic
Conditions: 48 h
Outline: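 Library compounds in DMSO were pin-dosed in an 11-point threefold series (47 μM to 0.79 nM) onto leukemia cells in 1536-well plates (5 μl). Plates held 500 cells/well of NOMO1 or SEM or 1000 cells/well of P12-Ichikawa, each adapted for at least four passages in each medium. Luminescence was read with CellTiter-Glo One after 48 h at 37°C. Viability means the per-plate percentage relative to DMSO wells, using cell-free wells as background.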

[1] = HPLM + 10% dialyzed FBS, 0.000781 µM
[2] = HPLM + 10% dialyzed FBS, 0.00234 µM
[3] = HPLM + 10% dialyzed FBS, 0.00702 µM
[4] = HPLM + 10% dialyzed FBS, 0.0211 µM
[5] = HPLM + 10% dialyzed FBS, 0.0632 µM
[6] = HPLM + 10% dialyzed FBS, 0.19 µM
[7] = HPLM + 10% dialyzed FBS, 0.569 µM
[8] = HPLM + 10% dialyzed FBS, 1.71 µM
[9] = HPLM + 10% dialyzed FBS, 5.12 µM
[10] = HPLM + 10% dialyzed FBS, 15.4 µM
[11] = HPLM + 10% dialyzed FBS, 46.1 µM
[12] = RPMI 5 mM glucose + 10% FBS, 0.000781 µM
[13] = RPMI 5 mM glucose + 10% FBS, 0.00234 µM
[14] = RPMI 5 mM glucose + 10% FBS, 0.00702 µM
[15] = RPMI 5 mM glucose + 10% FBS, 0.0211 µM
[16] = RPMI 5 mM glucose + 10% FBS, 0.0632 µM
[17] = RPMI 5 mM glucose + 10% FBS, 0.19 µM
[18] = RPMI 5 mM glucose + 10% FBS, 0.569 µM
[19] = RPMI 5 mM glucose + 10% FBS, 1.71 µM
[20] = RPMI 5 mM glucose + 10% FBS, 5.12 µM
[21] = RPMI 5 mM glucose + 10% FBS, 15.4 µM
[22] = RPMI 5 mM glucose + 10% FBS, 46.1 µM
[23] = RPMI 5 mM glucose + 10% dialyzed FBS, 0.000781 µM
[24] = RPMI 5 mM glucose + 10% dialyzed FBS, 0.00234 µM
[25] = RPMI 5 mM glucose + 10% dialyzed FBS, 0.00702 µM
[26] = RPMI 5 mM glucose + 10% dialyzed FBS, 0.0211 µM
[27] = RPMI 5 mM glucose + 10% dialyzed FBS, 0.0632 µM
[28] = RPMI 5 mM glucose + 10% dialyzed FBS, 0.19 µM
[29] = RPMI 5 mM glucose + 10% dialyzed FBS, 0.569 µM
[30] = RPMI 5 mM glucose + 10% dialyzed FBS, 1.71 µM
[31] = RPMI 5 mM glucose + 10% dialyzed FBS, 5.12 µM
[32] = RPMI 5 mM glucose + 10% dialyzed FBS, 15.4 µM
[33] = RPMI 5 mM glucose + 10% dialyzed FBS, 46.1 µM

Structure (SMILES)	cell viability [1] [%]	cell viability [2] [%]	cell viability [3] [%]	cell viability [4] [%]	cell viability [5] [%]	cell viability [6] [%]	cell viability [7] [%]	cell viability [8] [%]	cell viability [9] [%]	cell viability [10] [%]	cell viability [11] [%]	cell viability [12] [%]	cell viability [13] [%]	cell viability [14] [%]	cell viability [15] [%]	cell viability [16] [%]	cell viability [17] [%]	cell viability [18] [%]	cell viability [19] [%]	cell viability [20] [%]	cell viability [21] [%]	cell viability [22] [%]	cell viability [23] [%]	cell viability [24] [%]	cell viability [25] [%]	cell viability [26] [%]	cell viability [27] [%]	cell viability [28] [%]	cell viability [29] [%]	cell viability [30] [%]	cell viability [31] [%]	cell viability [32] [%]	cell viability [33] [%]
Cc1ccc(/C=N/NC(=O)c2ccccc2Oc2ccccc2)o1	102	101	87	85.8	109	96.9	89.6	94.9	93.5	91.7	90.9	107	98.2	93	106	102	104	99.4	104	93.6	98.6	90.5	147	102	91.7	102	91.8	101	97.5	97.4	66.5	92.5	73.4
C[N]1N=CC=C1C/2=C(\C)N(C(=O)C(=C2)/C(=O)NCC3=NC=C(C=C3)[S+](C)([O-])=O)C4=CC=CC(=C4)C(F)(F)F	96	98.3	100	103	105	103	99.5	105	91.2	95.4	77.9	–	–	–	–	–	–	–	–	–	–	–	90	105	120	126	115	112	108	115	100	107	76
NC[C@H]1O[C@H](O[C@H]2[C@H](O)[C@@H](O[C@H]3O[C@H](CO)[C@@H](O)[C@H](N)[C@H]3O)[C@H](N)C[C@@H]2N)[C@H](N)C[C@@H]1O	88.9	95.3	98.6	108	104	92.9	107	96.9	101	101	109	93.7	97.1	106	98.6	119	109	112	95.6	89	100	111	105	105	118	116	107	108	110	104	112	103	111
OC[C@H]1OC(OC2=CC3=C(C(=C2)O)C(=O)\C(=C/O3)C4=CC=C(O)C=C4)[C@H](O)[C@@H](O)[C@@H]1O (stereo not given in full)	93.7	92.9	92	98.1	93	79.9	69.7	93.4	81.6	78.6	65.3	97.9	86.8	111	102	117	89.6	89	98	86.4	92.4	94.1	86.3	89.1	114	94.7	106	88.3	89.8	96.6	90.3	90.1	95.8
CC1=C(/C=C/C(C)=C/C=C/C(C)=C/C(=O)O)C(C)(C)CCC1	111	114	116	129	133	123	137	145	122	115	102	118	116	139	123	120	123	121	155	124	113	101	112	107	128	99.8	110	120	120	144	102	98.3	84.8
Cc1ccc(-c2cc(C(F)(F)F)nn2-c2ccc([S+](N)(=O)[O-])cc2)cc1	112	113	106	125	119	126	121	122	106	109	91.3	84.8	109	110	110	126	122	122	102	102	105	83.9	120	121	126	127	120	123	120	111	117	140	87.4
CN(C)CCc1c[nH]c2ccc(C[S+](=O)([O-])N3CCCC3)cc12	78.9	97.3	91.4	104	97.1	97.5	94	109	97.8	86.8	83.6	83.9	93.4	85.7	93.7	101	104	96.8	101	87.2	60.5	67.4	87.5	96	91.5	98.4	107	96.2	88.5	96.7	84.4	77.2	65
